Laboratory results: patent publication US10611740B2, “Aryl dihydro-2H-benzo[b][1,4]oxazine sulfonamide and related compounds for use as agonists of RORγ and the treatment of disease” (Lycera Corporation, priority 2015, dated 2020)

What was measured:
Gal4-RORγ-LBD = target: T1, Gal4-RORγ-LBD (Homo sapiens, UniProt P51449); assay: Gal4-RORγ Luciferase Reporter Assay in HEK-293T Cells; format: cell-based; conditions: HEK-293 cells
T1 construct: expressed in transfected cells; host or cells: HEK-293 cells (pcDNA3.1neo plasmid)
T1 sequence (P51449 269-508 limits assumed): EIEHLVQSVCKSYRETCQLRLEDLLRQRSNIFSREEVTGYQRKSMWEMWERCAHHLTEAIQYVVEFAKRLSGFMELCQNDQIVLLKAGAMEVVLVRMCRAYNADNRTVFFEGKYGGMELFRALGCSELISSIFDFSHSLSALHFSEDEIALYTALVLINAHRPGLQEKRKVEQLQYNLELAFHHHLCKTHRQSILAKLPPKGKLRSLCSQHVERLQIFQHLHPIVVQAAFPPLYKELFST
In short: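 Luminescence read-out (One-Glo, 10 min RT) after overnight compound exposure at 37 °C in HEK-293 cells carrying Gal4-RORγ-LBD plus a Gal4-luciferase reporter, in the presence of 2 μM ursolic acid. Max Response is the upper plateau from a 4-parameter logistic fit, normalized to untreated signal = 100.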

RORγ-LBD = target: T2, RORγ-LBD (Homo sapiens, UniProt P51449); assay: RORγ-Ligand Binding Domain (LBD) TR-FRET Assay; format: biochemical;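 for TR-FRET Assay Max Response: 665/615 nm ratio relative to signal without ursolic acid or compound set at 100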
T2 construct: made in house; host or cells: SF9 cells (baculovirus)
T2 sequence (P51449 269-508 limits assumed): T1 sequence (P51449 269-508 limits assumed)
In short: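 This TR-FRET coactivator assay pairs baculovirus-expressed His-RORγ-LBD (~3 nM final) with biotin-SRC1 LXXLL peptide at 200 nM final in pH 7.0 Tris/KCl/EDTA/DTT/BSA buffer.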

[1] = luciferase reporter, with 2 μM ursolic acid

EC50 (Gal4-RORγ-LBD; [1]) [nM]	EC50 (RORγ-LBD) [nM]	EC50 (Gal4-RORγ-LBD; 2 μM ursolic acid) [nM]	SMILES	Gal4-RORγ Assay Max Response (Gal4-RORγ-LBD; [1])	TR-FRET Assay Max Response (RORγ-LBD)	Gal4-RORγ Assay Max Response (Gal4-RORγ-LBD; 2 μM ursolic acid)
–	< 500	< 500	CC(C)(C[C@H]1CN(S(=O)(=O)c2cccc(C(F)(F)F)c2)c2cc(-c3cc(C(F)(F)F)ccc3Cl)ccc2O1)C(=O)O [Compound 32AD, (S)-3-(6-(2-chloro-5-(trifluoromethyl)phenyl)-4-((3-(trifluoromethyl)phenyl)sulfonyl)-3,4-dihydro-2H-benzo[b][1,4]oxazin-2-yl)-2,2-dimethylpropanoic acid]	–	*** (The symbol “***” indicates a value in the range of greater than 150 to 200)	* (The symbol “*” indicates a value in the range of 25 to 90)
< 500	< 500	–	COc1cccc(-c2ccc3c(c2)N(S(=O)(=O)c2cccc(C(F)(F)F)c2)C[C@H](CC(C)(C)C(=O)O)O3)c1 [Compound 32B, (S)-3-(6-(3-methoxyphenyl)-4-((3-(trifluoromethyl)phenyl)sulfonyl)-3,4-dihydro-2H-benzo[b][1,4]oxazin-2-yl)-2,2-dimethylpropanoic acid]	** (The symbol “**” indicates a value in the range of greater than 90 to 150)	*** (The symbol “***” indicates a value in the range of greater than 150 to 200)	–
< 500	< 500	–	O=C(O)CC[C@H]1CN(S(=O)(=O)c2cccc(C(F)(F)F)c2)c2cc(-c3cc(Cl)cc(Cl)c3)ccc2O1 [Compound 2L, (S)-3-(6-(3,5-dichlorophenyl)-4-((3-(trifluoromethyl)phenyl)-sulfonyl)-3,4-dihydro-2H-benzo[b][1,4]oxazin-2-yl)propanoic acid]	*** (The symbol “***” indicates a value in the range of greater than 150 to 200)	*** (The symbol “***” indicates a value in the range of greater than 150 to 200)	–
< 500	< 500	–	COc1cc(F)c(F)c(-c2ccc3c(c2)N(S(=O)(=O)c2cccc(C(F)(F)F)c2)C[C@H](CCC(=O)O)O3)c1 [Compound 4AR, (S)-3-(6-(2,3-difluoro-5-methoxyphenyl)-4-((3-(trifluoromethyl)phenyl)sul-fonyl)-3,4-dihydro-2H-benzo[b][1,4]oxazin-2-yl)propanoic acid]	** (The symbol “**” indicates a value in the range of greater than 90 to 150)	**** (The symbol “****” indicates a value greater than 200)	–
< 500	< 500	–	Cc1ncc(F)cc1-c1ccc2c(c1)N(S(=O)(=O)c1cccc(C(F)(F)F)c1)C[C@H](CCC(=O)O)O2 [Compound 4AF, (S)-3-(6-(5-fluoro-2-methylpyridin-3-yl)-4-((3-(trifluoromethyl)phenyl)sulfonyl)-3,4-dihydro-2H-benzo[b][1,4]oxazin-2-yl)propanoic acid]	** (The symbol “**” indicates a value in the range of greater than 90 to 150)	**** (The symbol “****” indicates a value greater than 200)	–
–	< 500	< 500	O=C(O)C1(C[C@H]2CN(S(=O)(=O)c3cccc(C(F)(F)F)c3)c3cc(-c4cc(F)ccc4F)ccc3O2)CCC1 [Compound 32BE, (S)-1-((6-(2,5-difluorophenyl)-4-((3-(trifluoromethyl)phenyl)-sulfonyl)-3,4-dihydro-2H-benzo[b][1,4]oxazin-2-yl)methyl)cyclobutane-1-carboxylic acid]	–	** (The symbol “**” indicates a value in the range of greater than 90 to 150)	** (The symbol “**” indicates a value in the range of greater than 90 to 150)

Further lines, the molecule ahead of its results:

SMILES	EC50 (Gal4-RORγ-LBD; [1]) [nM]	EC50 (RORγ-LBD) [nM]	EC50 (Gal4-RORγ-LBD; 2 μM ursolic acid) [nM]	Gal4-RORγ Assay Max Response (Gal4-RORγ-LBD; [1])	TR-FRET Assay Max Response (RORγ-LBD)	Gal4-RORγ Assay Max Response (Gal4-RORγ-LBD; 2 μM ursolic acid)
COc1ccnc(-c2ccc3c(c2)N(S(=O)(=O)c2cccc(C(F)(F)F)c2)C[C@H](CCC(=O)O)O3)c1 [Compound 4F, (S)-3-(6-(4-methoxypyridin-2-yl)-4-((3-(trifluoromethyl)-phenyl)sulfonyl)-3,4-dihydro-2H-benzo[b][1,4]oxazin-2-yl)propanoic acid]	500 to 5000	< 500	–	** (The symbol “**” indicates a value in the range of greater than 90 to 150)	**** (The symbol “****” indicates a value greater than 200)	–
COCCC(=O)NC[C@H]1CN(S(=O)(=O)c2cccc(C(F)(F)F)c2)c2cc(-c3cccc(F)c3Cl)ccc2O1 [Compound 30CH, (S)-N-((6-(2-chloro-3-fluoro-phenyl)-4-((3-(trifluoromethyl)-phenyl)sulfonyl)-3,4-dihydro-2H-benzo[b][1,4]oxazin-2-yl)methyl)-3-methoxy-propanamide]	–	< 500	500 to 5000	–	*** (The symbol “***” indicates a value in the range of greater than 150 to 200)	* (The symbol “*” indicates a value in the range of 25 to 90)
N#CCC(=O)NC[C@H]1CN(S(=O)(=O)c2cccc(C(F)(F)F)c2)c2cc(-c3cccc(C(F)(F)F)n3)ccc2O1 [Compound 30BH, (S)-2-cyano-N-((4-((3-(trifluoromethyl)phenyl)-sulfonyl)-6-(6-(trifluoro-methyl)pyridin-2-yl)-3,4-dihydro-2H-benzo[b][1,4]-oxazin-2-yl)methyl)acetamide]	500 to 5000	< 500	–	** (The symbol “**” indicates a value in the range of greater than 90 to 150)	*** (The symbol “***” indicates a value in the range of greater than 150 to 200)	–
O=C(O)C1(C[C@H]2CN(S(=O)(=O)c3cccc(C(F)(F)F)c3)c3cc(-c4cc(F)cc(F)c4Cl)ccc3O2)COC1 [Compound 51B, (S)-3-((6-(2-chloro-3,5-difluoro-phenyl)-4-((3-(trifluoromethyl)-phenyl)sulfonyl)-3,4-dihydro-2H-benzo[b][1,4]oxazin-2-yl)methyl)oxetane-3-carboxylic acid]	–	< 500	< 500	–	*** (The symbol “***” indicates a value in the range of greater than 150 to 200)	** (The symbol “**” indicates a value in the range of greater than 90 to 150)
O=C(O)CC[C@H]1CN(S(=O)(=O)c2cccc(C(F)(F)F)c2)c2cc(-c3cccnc3-c3ccccc3)ccc2O1 [Compound 4AD, (S)-3-(6-(2-phenylpyridin-3-yl)-4-((3-(trifluoromethyl)-phenyl)sulfonyl)-3,4-dihydro-2H-benzo[b][1,4]oxazin-2-yl)propanoic acid]	> 10000	> 10000	–	–	–	–
COc1cccc(-c2ccc3c(c2)N(S(=O)(=O)c2ccc(F)c(OC)c2)C[C@H](CCNC(=O)C(C)(C)O)O3)c1 [Compound 30N, (S)-N-(2-(4-((4-fluoro-3-methoxyphenyl)sulfonyl)-6-(3-methoxyphenyl)-3,4-dihydro-2H-benzo[b][1,4]oxazin-2-yl)ethyl)-2-hydroxy-2-methylpropanamide]	< 500	< 500	–	* (The symbol “*” indicates a value in the range of 25 to 90)	*** (The symbol “***” indicates a value in the range of greater than 150 to 200)	–
